In ChEMBL document CHEMBL1201862, “PubChem BioAssay data set” (2004):
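Interpolation was linear, between the two tested concentrations surrounding the appropriate level; five concentrations were tested over 48 hours in 96-well plates. Here, GI50 denotes the concentration required for 50% inhibition of growth.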 The source made the active and inactive calls. Rule as the data show it: active = GI50 up to about 1.1 µM and inactive = higher.

Key:
Assay in all cases: DTP human tumour cell line panel, 48 h
MDA-MB-435 = test system: MDA-MB-435
SF-295 = test system: SF-295
SNB-19 = test system: SNB-19
SK-MEL-28 = test system: SK-MEL-28
OVCAR-3 = test system: OVCAR-3
HCC 2998 = test system: HCC 2998
HCT-116 = test system: HCT-116
786-0 = test system: 786-0
PC-3 = test system: PC-3
COLO 205 = test system: COLO 205
HOP-92 = test system: HOP-92
SR = test system: SR
UO-31 = test system: UO-31
SW-620 = test system: SW-620
HT-29 = test system: HT-29
BT-549 = test system: BT-549
IGROV-1 = test system: IGROV-1
Malme-3M = test system: Malme-3M
Hs-578T = test system: Hs-578T

Measured: GI50

CC1(C)O[C@H]2[C@@H]3N=C(c4ccccc4)O[C@@H]3C=C[C@H]2O1
inactive: MDA-MB-435 > 100 µM | SF-295 > 100 µM | SNB-19 > 100 µM | SK-MEL-28 > 100 µM | OVCAR-3 > 100 µM | HCC 2998 > 100 µM | HCT-116 > 100 µM | 786-0 > 100 µM | PC-3 > 100 µM | COLO 205 > 100 µM | HOP-92 83.2 µM | SR > 100 µM | UO-31 > 100 µM | SW-620 > 100 µM | HT-29 > 100 µM | BT-549 > 100 µM | IGROV-1 > 100 µM

Cc1ccc(N2C(=O)C=C(C3=C(O)C(=O)N(c4ccc(C)cc4)C3=O)C2=O)cc1
inactive: MDA-MB-435 > 100 µM | SF-295 > 100 µM | SNB-19 > 100 µM | SK-MEL-28 > 100 µM | OVCAR-3 > 100 µM | HCC 2998 > 100 µM | HCT-116 > 100 µM | 786-0 > 100 µM | PC-3 > 100 µM | COLO 205 > 100 µM | HOP-92 46.5 µM | SR > 100 µM | UO-31 > 100 µM | SW-620 > 100 µM | Malme-3M > 100 µM | HT-29 > 100 µM | BT-549 > 100 µM | IGROV-1 > 100 µM

CC(C)(C)c1cc2c(O)c(c1)Cc1cc(C(C)(C)C)cc(c1O)Cc1cc(C(C)(C)C)cc(c1O)Cc1cc(C(C)(C)C)cc(c1O)Cc1cc(C(C)(C)C)cc(c1O)Cc1cc(C(C)(C)C)cc(c1O)Cc1cc(C(C)(C)C)cc(c1O)Cc1cc(C(C)(C)C)cc(c1O)C2
inactive: MDA-MB-435 > 50 µM | SF-295 > 50 µM | SNB-19 > 50 µM | SK-MEL-28 > 50 µM | OVCAR-3 > 50 µM | HCC 2998 > 50 µM | HCT-116 > 50 µM | 786-0 > 50 µM | PC-3 > 50 µM | COLO 205 > 50 µM | HOP-92 > 50 µM | SR > 50 µM | UO-31 > 50 µM | SW-620 > 50 µM | Malme-3M > 50 µM | HT-29 > 50 µM | IGROV-1 > 50 µM | Hs-578T > 50 µM

COc1ccccc1NC(=O)C1=C(C)NC(C)=C(C(=O)Nc2ccccc2OC)C1c1cccc2c1OCO2
inactive: SF-295 > 100 µM | SNB-19 91.8 µM | SK-MEL-28 > 100 µM | OVCAR-3 > 100 µM | HCC 2998 85.7 µM | HCT-116 71.9 µM | 786-0 > 100 µM | COLO 205 > 100 µM | HOP-92 > 100 µM | SR 30.5 µM | UO-31 47.4 µM | SW-620 > 100 µM | Malme-3M > 100 µM | HT-29 > 100 µM | IGROV-1 > 100 µM
